One experiment concerns human PBMC. Nature of the experiment: hPBMC cytokine release assay (Luminex, IFN-β). To be noted: read-out: Agonist_hPBMC_IFN-β_EC50. Format: cell-based. On the procedure:
This is the cytokines concentration detection with Luminex assay for human PBMC supernatant. Human peripheral blood mononuclear cells (PBMC) are treated by compounds with appropriate time. Multiple cytokines are released in the supernatant in response to the compound stimulation. Luminex assay can measure the cytokines concentration in supernatant and the compounds activity on human PBMC can be evaluated.
Frozen PBMC was thawed and cultured in PRMI1640 (GIBCO 11875-093) whole medium with […] Heat inactivated-FBS (HI—FBS), 1% NEAA, […] in CO2 incubator overnight. Cells were centrifuged at 400×g for 5 minutes at 4° C. and the pellet was re-suspended with complete RPMI1640 medium to concentration of 1×10^6 cells/ml in cell culture flask T75 (Thermo Fisher Scientific). Compounds were serially diluted with DMSO and distributed to 96-well flat bottom cell plate (Corning 3599) with Echo555. 90 μL/well PBMC cells were seeded into the plates with Multidrop (Thermo Fisher Scientific). After 24 hours of incubation in CO2 incubator, cells were centrifuged at 400×g for 5 minutes at room temperature, 80 μL supernatant each well was collected for cytokines release test with luminex assay of Human custom ProcartaPlex 5-plex kit (Thermo Fisher Scientific PPX-05). 10 μL supernatant or standards were added to a mixture of color-coded beads, 5 μL Biotinylated detection antibodies specific to the analytes of interest were added and formed an antibody-antigen sandwich. 10 μL Phycoerythrin (PE)-conjugated streptavidin is added to the plate and then read signal of each well on the Luminex 200™. The raw data was analyzed by Millipore Analyst Software and cytokine concentrations were generated accordingly. The EC50 of corresponding cytokine such as interferon-β (IFN-β) was calculated by the 4-parameter sigmoidal concentration response model fitting.

In experiment [1] the test system is interferon regulatory factor (IRF) pathway in THP1-Dual™ cells. The experiment can be described thus: THP1-Dual reporter gene assay (Agonist_THP1_EC50). Format: cell-based. To be noted: Homo sapiens, 20-24 hrs compound treatment, Lucia luciferase (IRF) readout. The text has this: This is the cellular reporter assay to evaluate compounds' agonism to interferon regulatory factor (IRF) pathway in THP1-Dual™ cells (InvivoGen, cat number thpd-nfis). THP1-Dual™ cells were derived from the human THP-1 monocyte cell line by stable integration lucia luciferase gene, a new secreted luciferase reporter gene, under the control of an ISG54 (interferon-stimulated gene) minimal promoter in conjunction with five interferon (IFN)-stimulated response elements. As a result, THP1-Dual™ cells allow the study of the IRF pathway, by assessing the activity of Lucia luciferase. Lucia luciferase protein is readily measurable in the cell culture supernatant when using QUANTI-Luc™ (InvivoGen, cat: rep-qlcg-500).
After 20-24 hrs compound treatment in THP1-Dual cells, the compounds' agonism to IRF pathway and cell toxicity were tested by measuring luminescence and OD 450 on an Envision plate reader.
On the day of experiment, 30 μL of test medium (RPMI 1640, 2 mM L-glutamine, 25 mM HEPES, […] heat-inactivated fetal bovine serum) was dispensed in a white 384-well plate (Grenier, cat: 781098) containing the serially diluted compounds (final 1% DMSO) transferred by the Echo550 machine. Then 30 μL of cell suspension (˜33,000 cells, 1.1×10^6 cells/mL) per well was added immediately by thermo multidrop combi dispenser for incubation 20-24 h at 37° C., […]. At the end of the incubation, 10 μL of cellular supernatant was transferred to proxiplate 384-plus plate for IRF detection, and then 10 μL of QUANTI-Luc™ Gold solution was added to the plate that proceeded with the measurement immediately. To detect cell viability, 30 μL of the CCK-8 working solution (Dojindo Molecular Technologies, cat: CK04-20) was added to the cell plate, which was Incubated for 2 hrs in the incubator to measure the absorbance at 450 nm using Envision.
(A reporter such as luciferase makes a cellular process visible.)

Where [2] appears, read: 24 hours incubation, IFN-β in supernatant.

Where two headings read alike, the source gives them in different places.

Regarding `CCn1nc(C)c(O)c1-c1nc(-c2nc(C(N)=O)cc3c2cnn3C)co1` [AE01, reference compound], the EC50 with human PBMC (prior art compounds (Table 4), IFN-β) was found to be 40 nM. In the case of `Cc1nn(CC=C(F)F)c(-c2n[nH]c(-c3nc(C(N)=O)cc4c3cnn4C)n2)c1O` [Example 34, 4-[3-[2-(3,3-difluoroallyl)-4-hydroxy-5-methyl-pyrazol-3-yl]-1H-1,2,4-triazol-5-yl]-1-methyl-pyrazolo[4,3-c]pyridine-6-carboxamide], the EC50 is 12 nM in experiment [1] and 11 nM in the experiment with human PBMC (setting [2]).

As for `CC#CCCn1nc(C)c(O)c1-c1n[nH]c(-c2nc(C(N)=O)cc3c2cnn3C)n1` [Example 45, 4-[3-(4-hydroxy-5-methyl-2-pent-3-ynyl-pyrazol-3-yl)-1H-1,2,4-triazol-5-yl]-1-methyl-pyrazolo[4,3-c]pyridine-6-carboxamide], the EC50 (in experiment [1]; in the experiment on human PBMC (setting [2])) was 9 nM in each case. For the compound `COC(=O)c1ccc(CCn2nc(C)c(O)c2-c2n[nH]c(-n3nc(C(N)=O)c4cc(C)ncc43)n2)cc1` [Example 62, Methyl 4-[2-[5-[5-(3-carbamoyl-5-methyl-pyrazolo[3,4-c]pyridin-1-yl)-1H-1,2,4-triazol-3-yl]-4-hydroxy-3-methyl-pyrazol-1-yl]ethyl]benzoate], the EC50 in experiment [1] was determined as 44 nM. The same measure, in the same setting: in the case of `Cc1cc2c(C(N)=O)nn(-c3nc(-c4c(O)c(C)nn4CC=C(F)F)n[nH]3)c2cn1` [Example 63, 1-(3-(1-(3,3-difluoroallyl)-4-hydroxy-3-methyl-1H-pyrazol-5-yl)-1H-1,2,4-triazol-5-yl)-5-methyl-1H-pyrazolo[3,4-c]pyridine-3-carboxamide] it was 26 nM.

`COCc1cccc(CCn2nc(C)c(O)c2-c2n[nH]c(-n3nc(C(N)=O)c4cc(C)ncc43)n2)c1` [Example 65, 1-[3-[4-hydroxy-2-[2-[3-(methoxymethyl)phenyl]ethyl]-5-methyl-pyrazol-3-yl]-11H-1,2,4-triazol-5-yl]-5-methyl-pyrazolo[3,4-c]pyridine-3-carboxamide] returned an EC50 in experiment [1] of 17 nM.

For `Cc1cc2c(C(N)=O)nn(-c3nc(-c4c(O)c(C)nn4CCC(F)F)n[nH]3)c2cn1` [Example 66, 1-(3-(1-(3,3-difluoropropyl)-4-hydroxy-3-methyl-1H-pyrazol-5-yl)-1H-1,2,4-triazol-5-yl)-5-methyl-1H-pyrazolo[3,4-c]pyridine-3-carboxamide], in experiment [1], the EC50 was found to be 27 nM. Still for that read-out and setting: the figure for `Cc1cc2c(C(N)=O)nn(-c3nc(-c4c(O)c(C)nn4CCc4ccc(CO)cc4)n[nH]3)c2cn1` [Example 68, 1-[3-[4-hydroxy-2-[2-[4-(hydroxymethyl)phenyl]ethyl]-5-methyl-pyrazol-3-yl]-1H-1,2,4-triazol-5-yl]-5-methyl-pyrazolo[3,4-c]pyridine-3-carboxamide] is 27 nM; for `COc1ccc(CCn2nc(C)c(O)c2-c2n[nH]c(-c3c(F)c(C(N)=O)n4cc(C)ncc34)n2)cc1` [Example 69, 7-fluoro-8-[3-[4-hydroxy-2-[2-(4-methoxyphenyl)ethyl]-5-methyl-pyrazol-3-yl]-1H-1,2,4-triazol-5-yl]-3-methyl-pyrrolo[1,2-a]pyrazine-6-carboxamide] it is 93 nM; for `Cc1cn2c(C(N)=O)nc(-c3nc(-c4c(O)c(C)nn4CCc4ccc(CO)cc4)n[nH]3)c2cn1` [Example 71, 1-[3-[4-hydroxy-2-[2-[4-(hydroxymethyl)phenyl]ethyl]-5-methyl-pyrazol-3-yl]-1H-1,2,4-triazol-5-yl]-6-methyl-imidazo[1,5-a]pyrazine-3-carboxamide] it is 15 nM. Still for that read-out and setting: the figure for `Cc1cn2c(C(N)=O)nc(-c3nc(-c4c(O)c(C)nn4CCc4cccnc4)n[nH]3)c2cn1` [Example 72, 1-[3-[4-hydroxy-5-methyl-2-[2-(3-pyridyl)ethyl]pyrazol-3-yl]-1H-1,2,4-triazol-5-yl]-6-methyl-imidazo[1,5-a]pyrazine-3-carboxamide] is 15 nM.

Consider `Cc1cn2c(C(N)=O)c(F)c(-c3nc(-c4c(O)c(C)nn4CCc4cccnc4)n[nH]3)c2cn1` [Example 73, 7-fluoro-8-[3-[4-hydroxy-5-methyl-2-[2-(3-pyridyl)ethyl]pyrazol-3-yl]-1H-1,2,4-triazol-5-yl]-3-methyl-pyrrolo[1,2-a]pyrazine-6-carboxamide], for which the EC50 in experiment [1] is 39 nM. Same read-out and setting: in the case of `Cc1cc2c(C(N)=O)nn(-c3coc(-c4c(O)c(C)nn4CCc4cccnc4)n3)c2cn1` [Example 74, 1-(2-(4-hydroxy-3-methyl-1-(2-(pyridin-3-yl)ethyl)-1H-pyrazol-5-yl)oxazol-4-yl)-5-methyl-1H-pyrazolo[3,4-c]pyridine-3-carboxamide] it was 170 nM; in that of `COc1cccc(CCn2nc(C)c(O)c2-c2nc(-n3nc(C(N)=O)c4cc(C)ncc43)co2)c1` [Example 75, 1-(2-(4-hydroxy-1-(3-methoxyphenethyl)-3-methyl-1H-pyrazol-5-yl)oxazol-4-yl)-5-methyl-1H-pyrazolo[3,4-c]pyridine-3-carboxamide], 49 nM; in that of `COc1ccc(CCn2nc(C)c(O)c2-c2nc(-n3nc(C(N)=O)c4cc(C)ncc43)co2)cc1` [Example 78, 1-(2-(4-hydroxy-1-(4-methoxyphenethyl)-3-methyl-1H-pyrazol-5-yl)oxazol-4-yl)-5-methyl-1H-pyrazolo[3,4-c]pyridine-3-carboxamide], 90 nM.

Regarding `COCC#CCCn1nc(C)c(O)c1-c1n[nH]c(-n2nc(C(N)=O)c3cc(C)ncc32)n1` [Example 81, 1-[3-[4-hydroxy-2-(5-methoxypent-3-ynyl)-5-methyl-pyrazol-3-yl]-1H-1,2,4-triazol-5-yl]-5-methyl-pyrazolo[3,4-c]pyridine-3-carboxamide], the EC50 in experiment [1] came out at 65 nM. Take `CCCn1nc(C)c(O)c1-c1nc(-c2nc(C(N)=O)n3cc(C)ncc23)co1` [Example 85, 1-[2-(4-hydroxy-5-methyl-2-propyl-pyrazol-3-yl)oxazol-4-yl]-6-methyl-imidazo[1,5-a]pyrazine-3-carboxamide]: the EC50 in experiment [1] came to 49 nM. The same measure, in the same setting: the figure for `Cc1cn2c(C(N)=O)nc(-c3nc(-c4c(O)c(C)nn4CCc4ccc(CN5CCOCC5)cc4)n[nH]3)c2cn1` [Example 87, 1-[3-[4-hydroxy-5-methyl-2-[2-[4-(morpholinomethyl)phenyl]ethyl]pyrazol-3-yl]-1H-1,2,4-triazol-5-yl]-6-methyl-imidazo[1,5-a]pyrazine-3-carboxamide] is 53 nM. Consider `Cc1cc2c(C(N)=O)nn(-c3coc(-c4c(O)c(C)nn4CCc4ccc(CN5CCOCC5)cc4)n3)c2cn1` [Example 88, 1-[2-[4-hydroxy-5-methyl-2-[2-[4-(morpholinomethyl)phenyl]ethyl]pyrazol-3-yl]oxazol-4-yl]-5-methyl-pyrazolo[3,4-c]pyridine-3-carboxamide], for which the EC50 in experiment [1] worked out at 179 nM. Still for that read-out and setting: in the case of `COCc1ccc(CCn2nc(C)c(O)c2-c2nc(-n3nc(C(N)=O)c4cc(C)ncc43)co2)cc1` [Example 89, 1-[2-[4-hydroxy-2-[2-[4-(methoxymethyl)phenyl]ethyl]-5-methyl-pyrazol-3-yl]oxazol-4-yl]-5-methyl-pyrazolo[3,4-c]pyridine-3-carboxamide] it was 55 nM; in that of `Cc1cn2c(C(N)=O)nc(-c3nc(-c4c(O)c(C)nn4CCc4nccs4)n[nH]3)c2cn1` [Example 90, 1-[3-[4-hydroxy-5-methyl-2-(2-thiazol-2-ylethyl)pyrazol-3-yl]-1H-1,2,4-triazol-5-yl]-6-methyl-imidazo[1,5-a]pyrazine-3-carboxamide], 30 nM; in that of `CCCn1nc(C)c(O)c1-c1nc(-c2nc(C(N)=O)n3cc(C)ncc23)n(C)n1` [Example 92, 1-[5-(4-hydroxy-5-methyl-2-propyl-pyrazol-3-yl)-2-methyl-1,2,4-triazol-3-yl]-6-methyl-imidazo[1,5-a]pyrazine-3-carboxamide], 222 nM.
